We go through seven molecules from patent US20060211651A1, “Persulfated oligosaccharide acting on selectins and chemokine” (Taisho Pharmaceutical Co., Ltd., priority 2002, published 2006).

Assay [1] concerns the target T1, γ-interferon inducible protein-10 (Homo sapiens, UniProt P02778). As to the kind of experiment: Binding of biotinylated oligosaccharide fraction (streptavidin-alkaline phosphatase) to IP-10. As to conditions: FIG. 7 panel D; absorbance at 620 nm. On the procedure: (§1) First, each of oligosaccharides was biotinylated with biotin-LC-hydrazide at a reducing end. To each of the fraction a, the fraction c, the fraction e-1 and the fraction e-2 obtained in the above item (2), 125 mM EZ-link™ biotin-LC-hydrazide and 1M NaCNBH3 in dimethyl sulfoxide/acetic acid (7:3) were added. The resulting reaction mixture was incubated at 65° C. for 3 hours, and then incubated at 37° C. for 12.5 to 18.5 hours to biotinylate an oligosaccharide. Each of the resulting reaction products was subjected to Sephadex G-25 column as described above, to remove unreacted biotin-LC-hydrazide, thereby collecting the fraction containing a biotinylated oligosaccharide. Then, the resulting fraction was evaporated to dryness.
(§2) Then, a part of a fraction containing 16 pmol of each biotinylated oligosaccharide was dissolved in 0.5 ml of the buffer A, and thereafter, each of the resulting solutions and 1 μl (2 pmol) of streptavidin-conjugated alkaline phosphatase [manufactured by Promega] were incubated at 4° C. overnight.
(§3) Each of the resulting products was 3-fold diluted with the buffer A respectively. […] Binding was determined by measuring absorbance at 620 nm using Blue Phos™ substrate. […]

Assay [2] has as its system P-selectin-Ig. Put plainly: Binding of biotinylated oligosaccharide fraction (streptavidin-alkaline phosphatase) to P-selectin-Ig. The following applies: FIG. 7 panel D; absorbance at 620 nm. On the procedure: as §1, §2, §3
The target of assay [3] is T2, L-selectin-Ig (Homo sapiens, UniProt P14151).
T2 construct: purchased R & D Systems Inc
T2 sequence (P14151 with tags, fused parts or gaps limits assumed): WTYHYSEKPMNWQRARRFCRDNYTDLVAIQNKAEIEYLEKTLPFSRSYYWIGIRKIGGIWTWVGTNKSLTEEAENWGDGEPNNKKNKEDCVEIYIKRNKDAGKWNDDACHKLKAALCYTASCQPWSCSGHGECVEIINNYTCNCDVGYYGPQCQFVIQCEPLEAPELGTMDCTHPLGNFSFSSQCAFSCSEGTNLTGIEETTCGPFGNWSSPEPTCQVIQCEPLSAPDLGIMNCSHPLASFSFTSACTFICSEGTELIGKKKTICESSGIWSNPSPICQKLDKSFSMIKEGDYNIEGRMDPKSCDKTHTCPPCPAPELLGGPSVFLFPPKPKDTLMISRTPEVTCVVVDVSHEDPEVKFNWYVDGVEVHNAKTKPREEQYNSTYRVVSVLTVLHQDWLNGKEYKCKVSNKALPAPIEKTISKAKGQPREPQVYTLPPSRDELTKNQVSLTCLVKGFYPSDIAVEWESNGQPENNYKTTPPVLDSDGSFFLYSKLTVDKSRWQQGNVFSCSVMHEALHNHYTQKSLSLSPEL
As to the kind of experiment: Binding of biotinylated oligosaccharide fraction (streptavidin-alkaline phosphatase) to L-selectin-Ig. The following applies: FIG. 7 panel D; absorbance at 620 nm. On the procedure:
as §1, §2, §3

In assay [4] the test system is secondary lymphoid tissue chemokine. Put plainly: Binding of biotinylated oligosaccharide fraction (streptavidin-alkaline phosphatase) to SLC. The following applies: FIG. 7 panel D; absorbance at 620 nm. On the procedure: as §1, §2, §3
For assay [5], the target named is T3, stromal cell-derived factor-1β (Homo sapiens, UniProt P48061).
T3 construct: purchased Pepro Tech
Put plainly: Binding of biotinylated oligosaccharide fraction (streptavidin-alkaline phosphatase) to SDF-1β. As to conditions: FIG. 7 panel D; absorbance at 620 nm. On the procedure: as §1, §2, §3

In assay [6] the target is T4, platelet factor 4 (Homo sapiens, UniProt P02776).
T4 sequence (P02776 32-101): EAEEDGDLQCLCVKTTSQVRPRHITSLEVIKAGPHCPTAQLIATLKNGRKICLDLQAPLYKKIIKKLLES
Put plainly: Binding of biotinylated oligosaccharide fraction (streptavidin-alkaline phosphatase) to PF4. The following applies: FIG. 7 panel D; absorbance at 620 nm. On the procedure: as §1, §2, §3

Assay [7] concerns the target T5, C-terminal truncated secondary lymphoid tissue chemokine (Homo sapiens, UniProt O00585).
T5 construct: gift: Dr. Melissa Swoop Wills, Vertex Pharmaceutical Co
T5 sequence (O00585 24-102 limits assumed): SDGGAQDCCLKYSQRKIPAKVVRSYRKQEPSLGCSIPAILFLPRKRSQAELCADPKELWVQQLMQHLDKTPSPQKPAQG
Put plainly: Sandwich-type ELISA, versican binding to SLC-T. The following applies: FIG. 4 panel B. On the procedure:
(§4) ACHN cells were cultured for 2 days in the presence or absence of 100 mM sodium chlorate in RPMI 1640 containing 10% by weight of bovine fetal serum. After the conditioned medium was removed, cells were further cultured for 4 days in a serum-free medium, EX-CELL 610 HSF [manufactured by JRH Bioscience] in the presence or absence of 100 mM sodium chlorate. The conditioned medium was recovered, and spun at 10,000×g at 4° C. for 15 minutes to obtain each of a sodium chlorate-treated conditioned medium and sodium chlorate-untreated conditioned medium.
(§5) Binding between each of the resulting low-sulfated versican and intact versican, and chemokine was examined by sandwich-type enzyme-linked immunosorbent assay. […]
(§6) A conditioned medium of sodium chlorate-treated ACHN cells or a conditioned medium of sodium chlorate-untreated ACHN cells was added to a well of the resulting plate, followed by incubation for 1 hour. […] Binding was determined by measuring absorbance at 620 nm using alkaline phosphatase-conjugated streptavidin and Blue Phos™ substrate. […]

Assay [8] has as its target T2, L-selectin-Ig. As to the kind of experiment: Sandwich-type ELISA, versican binding to L-selectin-Ig. The following applies: FIG. 4 panel B. On the procedure:
as §4, §5, §6

In assay [9] the target is T6, stromal cell-derived factor-1α (Homo sapiens, UniProt P48061).
T6 construct: purchased Pepro Tech
As to the kind of experiment: Sandwich-type ELISA, versican binding to SDF-1α. The following applies: FIG. 4 panel B. On the procedure: as §4, §5, §6
(In general: ELISA stands for enzyme-linked immunosorbent assay.)

The subject of assay [10] is P-selectin-Ig. As to the kind of experiment: Sandwich-type ELISA, versican binding to P-selectin-Ig. The following applies: FIG. 4 panel B. On the procedure: as §4, §5, §6
Assay [11] concerns the target T4, platelet factor 4. As to the kind of experiment: Sandwich-type ELISA, versican binding to PF4. The following applies: FIG. 4 panel B. On the procedure:
as §4, §5, §6

For assay [12], the target named is T3, stromal cell-derived factor-1β. Put plainly: Sandwich-type ELISA, versican binding to SDF-1β. The following applies: FIG. 4 panel B. On the procedure: as §4, §5, §6
In assay [13] the test system is CD44-Ig. As to the kind of experiment: Sandwich-type ELISA, versican binding to CD44-Ig. The arrangement: species or system human. As to conditions: FIG. 4 panel B. On the procedure: as §4, §5, §6
CD44-Ig, sequence (P16070 21-178 limits assumed): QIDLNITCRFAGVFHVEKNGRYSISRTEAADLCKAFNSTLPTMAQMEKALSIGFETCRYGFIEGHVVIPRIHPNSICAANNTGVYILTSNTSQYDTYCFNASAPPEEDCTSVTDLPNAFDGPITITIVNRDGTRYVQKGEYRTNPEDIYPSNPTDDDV
The subject of assay [14] is secondary lymphoid tissue chemokine. Put plainly: Sandwich-type ELISA, versican binding to SLC. The following applies: FIG. 4 panel B. On the procedure:
as §4, §5, §6

In assay [15] the test system is anti-versican monoclonal antibody 2B1. Put plainly: Sandwich-type ELISA, versican binding to antibody 2B1. The following applies: FIG. 4 panel B. On the procedure:
as §4, §5, §6

The target in assay [16] is T1, γ-interferon inducible protein-10. As to the kind of experiment: Sandwich-type ELISA, versican binding to IP-10. The following applies: FIG. 4 panel B. On the procedure: as §4, §5, §6
The test system of assay [17] is E-selectin-Ig. Put plainly: Immunoprecipitation of versican from ACHN conditioned medium with E-selectin-Ig. It is filed as binding. The following applies: FIG. 1 lanes 13 and 14. On the procedure:
ACHN cells were pre-incubated at 37° C. for 6 hours in RPMI 1640 containing 10% by weight of bovine fetal serum in the presence or absence of 30 mM sodium chlorate. A confluent monolayer of the resulting ACHN cells was labeled by incubation for 18 hours in the presence or absence of 30 mM sodium chlorate, in a medium of either of:
Immunoprecipitation was performed as follows, according to the method described in the publication of Kawashima, H. et al. [Int. Immunol., 11, 393-405 (1999); all teachings of which are hereby incorporated by reference] except that beads were washed using buffer A (0.05% Tween 20, 20 mM HEPES-NaOH, 0.15M NaCl, 1 mM CaCl2, 1 mM MgCl2, pH6.8).
Each of the antibody and the Ig chimera shown in FIG. 1 (equivalent to 10 μg) was coupled to Protein A-Sepharose column (equivalent to 10 μL) by a conventional method, to obtain antibody-coupled Protein A-Sepharose or Ig chimera-coupled Protein A-Sepharose. […]
Thereafter, the beads were washed with the buffer A, to obtain precipitates. The resulting precipitates were subjected to SDS-agarose-PAGE, and thereafter, signal ascribed to ^35S label on a gel was detected by autoradiography.

The target of assay [18] is T2, L-selectin-Ig. As to the kind of experiment: Binding inhibition assay (ELISA), biotinylated versican to L-selectin-Ig, various concentrations. As to conditions: dose-dependent, FIG. 2 panel A. On the procedure: (§7) Inhibition assay of binding between versican and each of L-selectin, P-selectin and CD44 was performed as follows. First, each well on a 96 well flat bottom microtiter plate (Coster EIA/RIA plate No. 3690) was coated with L-selectin-Ig (3 μg/ml), P-selectin-Ig (4 μg/ml) or CD44-Ig (0.25 μg/ml) by a conventional procedure. […] The plate was incubated at room temperature for 2 hours. Thereafter, the plate was washed with the buffer A, and enzyme-linked immunosorbent assay was performed in the same manner as described in Kawashima, H. et al. [J. Biol. Chem., 275, 35448-35456 (2000)]. Binding was determined by measuring absorbance at 620 nm using alkaline phosphatase-conjugated streptavidin and Blue Phos™ substrate.

For assay [19], the system named is P-selectin-Ig. As to the kind of experiment: Binding inhibition assay (ELISA), biotinylated versican to P-selectin-Ig, various concentrations. As to conditions: dose-dependent, FIG. 2 panel B. On the procedure: as §7
The test system of assay [20] is CD44-Ig. As to the kind of experiment: Binding inhibition assay (ELISA), biotinylated versican to CD44-Ig, various concentrations. Details: species or system human. The following applies: FIG. 2 panel C. On the procedure:
as §7

Assay [21] has as its target monomeric L-selectin. As to conditions: immobilized ligand; cited from earlier work.

For the molecule “GlcAβ1-3GalNAc(4,6-O-disulfate)β1-4GlcAβ1-3GalNAc(4-O-sulfate) [fraction e-1]”, the “binding of biotinylated oligosaccharide fraction to γ-interferon inducible protein-10” value in assay [1] was “did not bind”. The “binding of biotinylated oligosaccharide fraction to P-selectin-Ig” value in assay [2] is recorded as “did not bind”. In assay [3], the “binding of biotinylated oligosaccharide fraction to L-selectin-Ig” value is “did not bind”. In addition, in [4], the “binding of biotinylated oligosaccharide fraction to secondary lymphoid tissue chemokine” value was “did not bind”. The “binding of biotinylated oligosaccharide fraction to stromal cell-derived factor-1β” value in assay [5] was “did not bind”. Moreover, the “binding of biotinylated oligosaccharide fraction to platelet factor 4” value in [6] is “moderately bound”.

Regarding “intact versican: versican from conditioned medium of sodium chlorate-untreated ACHN cells”, the “binding to recombinant truncated-type secondary lymphoid tissue chemokine” value in assay [7] is on record as “scarcely bound”. Besides, in assay [8], the “binding to L-selectin-Ig” value is “bound”. In addition, the “binding to stromal cell-derived factor-1α” value in assay [9] was “did not bind”. The “binding to P-selectin-Ig” value in assay [10] is “bound”. For the same molecule, in assay [11], the “binding to platelet factor 4” value is listed as “remarkably bound”. Besides, the “binding to stromal cell-derived factor-1β” value in assay [12] was “remarkably bound”. Further, the “binding to CD44-Ig” value in assay [13] is “bound”. The “binding to secondary lymphoid tissue chemokine” value in assay [14] is “remarkably bound”. In addition, the “binding to anti-versican monoclonal antibody 2B1” value in [15] is “bound”. Besides, the “binding to γ-interferon inducible protein-10” value in assay [16] is given as “remarkably bound”.

Take “low-sulfated versican: versican from conditioned medium of ACHN cells treated with 100 mM sodium chlorate, mainly unsulfated CS/DS chain”: the “binding to recombinant truncated-type secondary lymphoid tissue chemokine” value in assay [7] was “scarcely bound”. In addition, the “binding to stromal cell-derived factor-1α” value in assay [9] is listed as “did not bind”. Further, the “binding to CD44-Ig” value in assay [13] is given as “bound”. In addition, the “binding to anti-versican monoclonal antibody 2B1” value in [15] is reported as “bound”.

As to “GlcAβ1-3GalNAc(4,6-O-disulfate)β1-4GlcAβ1-3GalNAc(4,6-O-disulfate) [fraction e-2]”, in [1], the “binding of biotinylated oligosaccharide fraction to γ-interferon inducible protein-10” value is given as “bound”. The “binding of biotinylated oligosaccharide fraction to P-selectin-Ig” value in assay [2] is “bound”. In addition, in assay [3], the “binding of biotinylated oligosaccharide fraction to L-selectin-Ig” value is “bound”. Further, the “binding of biotinylated oligosaccharide fraction to secondary lymphoid tissue chemokine” value in [4] is recorded as “bound”. Also, in [5], the “binding of biotinylated oligosaccharide fraction to stromal cell-derived factor-1β” value is listed as “bound”.

In the case of “unsulfated versican: versican from ACHN cells treated with 30 mM sodium chlorate”, the “interaction with E-selectin-Ig” value in assay [17] was “did not interact”.

Consider keratan sulfate, for which, in assay [18], the “inhibition of binding between biotinylated versican and L-selectin-Ig” value is “not inhibited”. Further, the “inhibition of binding between biotinylated versican and P-selectin-Ig” value in assay [19] is on record as “not inhibited”. Besides, the “inhibition of binding between biotinylated versican and CD44-Ig” value in [20] is “not inhibited”.

B1: GlyCAM-1: known ligand of L-selectin (protein, UniProt Q02596 20-151, looked up)
Glycosylation-dependent cell …: LPGSKDELQMKTQPTDAIPAAQSTPTSYTSEESTSSKDLSKEPSIFREELISKDNVVIESTKPENQEAQDGLRSGSSQLEETTRPTTSAATTSEENLTKSSQTVEEELGKIIEGFVTGAEDIISGASRITKS
Consider B1, for which, in assay [21], the Kd – broadly, the constant that tells how readily two partners part at equilibrium – is 108 µM and the association rate is ≥ 10^5 M^−1s^−1.
